Legend:
KRas wild type = assay: Ras GTP Binding Domain Inhibition Assay (Ras Superfamily Assay); conditions: 20 μM compound; for KRas wild type + SOS: % inh.: with SOS; for KRas wild type: % inh.: without SOS
Text: (§1) Biological Example 3: Ras GTP Binding Domain Inhibition Assay
(§2) The assays described in Example 3 are collectively referred to as the “Ras Superfamily Assay” throughout this application.
(§3) A Ras Superfamily Activity Assay (as disclosed in International Application No. PCT/US2018/038613, filed Jun. 20, 2018, which is incorporated by reference in its entirety) was used as a specific assay to evaluate compounds against the following for the following Ras Superfamily proteins: KRas wild type, KRas Q61H mutant, KRas G12C mutant, KRas G12D mutant, Rac-1, and Rho-A.
(§4) • 25 mM Tris-HCl, pH 7.4 • 27 mM KCl • 137 mM NaCl • 1 mM MgCl2 • 1 mM DTT Buffer-II: • 50 mM Tris-HCl, pH 7.0 • 1 mM MgCl2 • 1 mM DTT
(§5) The small GTPases proteins: KRas wild type. KRas Q61H mutant, KRas G12C mutant, KRas G12D mutants, Rac-1, and Rho-A were expressed as His-tagged proteins. In addition, the Guanosine nucleotide Exchange Factor (GEF) Sos protein (residues 556-1049) was expressed as a His-tagged protein. In cells, the guanine nucleotide exchange factor Sos protein promotes activation of Ras proteins by stimulating an exchange of GDP for GTP. The inclusion of Sos to the Ras GTP binding domain inhibition assay may be considered as an alternative representation of physiological cellular conditions for evaluating the inhibitory activity of some of the tested small molecules.
(§6) For the assay, all purified small GTPases proteins were diluted in Buffer-I or Buffer-II to a final concentration of 10-30 μg/mL. 200 μL of each diluted protein was added to a nickel-coated 96-well plate and incubated overnight at 4° C. Then the protein solution was discarded and 200 μL of Buffer-I or Buffer-II was added to each well in the presence of 1% DMSO. Compounds to be tested were added to the protein-coated wells at final concentration of 20 μM, and incubated for 3 hours at room temperature with and without 10-30 μg/mL of Sos added to the final hour of the incubation. When performing IC50 measurements a serial dilution of all tested concentrations was added. Then Cy3-GTP or Cy5-GTP was added to each well to a final concentration of 100 nM. The labeled GTP was incubated for 45 minutes at room temperature. Following GTP incubation, wells were washed 3× in Buffer-I or Buffer-II and 200 μL of Buffer-I or Buffer-II was added to each well. Following washes, the amount of bound labeled-GTP was measured using a SpectraMax M3 (Molecular Devices).

Rac-1 = biological target: T1, Rac-1 (Homo sapiens, UniProt P63000); assay: as above; conditions: read-out: Rac-1: % inh.
T1 construct: made in house
Text: as §1, §2, §3, §4, §5, §6

KRas G12D mutant = assay: as above; conditions: 20 μM compound; for KRas G12D mutant + SOS: % inh.: with SOS; for KRas G12D mutant: % inh.: without SOS
Text: as §1, §2, §3, §4, §5, §6

TNF-alpha = TNF-alpha Quantification Assay (ELISA), LPS-stimulated RAW 264.7; type: cell-based; conditions: Mus musculus, RAW264.7; at 10 μM; read-out: TNFα: % inh.
[1] = system: Smad2/Smad3 phosphorylation; assay: Phospho-Smad2/3 Inhibition Assay (western blot), Panc-1; type: cell-based, human; conditions: at 10 μM, Panc-1 pancreatic cancer cell line; starred symbols = activation
Description: Protocol for Phospho-Smad2/3 Inhibition Assay
This assay is referred to as the “Phospho-Smad2/3 Inhibition Assay” throughout this application.
Cell lines: Human tumor-derived pancreatic cancer cell line Panc-1 (expressing KRas G12D mutant) and mouse muscle myoblast C2C12 were purchased from American Type Culture Collection and grown in complete DMEM-High Glucose, supplemented with penicillin (100 U/mL), streptomycin (100 μg/mL), and 10% heat-inactivated FBS at 37° C. in a humidified incubator with 5% CO2.
Method: Cells were plated at 350000 cells/well density in a 12-well plate, allowed 3 hours to adhere to the plate, then starved in the appropriate medium in the presence of 0.5% FBS overnight. The small molecules to be tested were added to the cells in the final concentration of 10 μM in the presence of 0.3% DMSO for 3 hours incubation at 37° C. For IC50 value determination, serial dilutions of compounds were added to cells under the same conditions. Next, Panc-1 cells were stimulated with 10 ng/ml TGF-b1 for 1 hour, and C2C12 cells were stimulated with 10 ng/ml TGF-b1 for 20 minutes (recombinant human TGF-b1, R&D Systems). After stimulation cells were lysed with lysis buffer containing 1% Triton X-100, EDTA, and Halt™ Protease & Phosphatase Inhibitor Cocktail (Thermo Scientific). Protein concentration was assessed by BCA protein assay (Thermo Scientific). Phosphorylation level of Smad2/Smad3 was determined by western blot.
Western blot protocol: Equal amounts of protein (15-50 μg) were separated by SDS-PAGE and transferred to nitrocellulose membranes (Invitrogen by Thermo Fisher Scientific). The membrane was stained with Ponceau S Stain (Boston BioProducts) to verify uniform protein loading. Membranes were blocked with 10% milk and phosphorylation levels of Smad2/Smad3 were assessed by incubating overnight at 4° C. with the following antibodies: Phospho-Smad2 (Ser465/467) and Phosph-Smad3 (Ser423/425), both from Cell Signaling Technology. Then the membranes were incubated with HRP-conjugated secondary antibody (Jackson Immunoresearch, West Grove, PA). Bands were incubated in Amersham ECL Prime Western Blotting Detection Reagent (GE Healthcare) and visualized using the ChemiDoc MP imaging system (Bio-Rad).

SMILES | KRas wild type + SOS: % inh. (KRas wild type) | KRas wild type: % inh. (KRas wild type) | inhibition at 20 µM (Rac-1) | KRas G12D mutant + SOS: % inh. (KRas G12D mutant) | KRas G12D mutant: % inh. (KRas G12D mutant) | inhibition at 10 µM (TNF-alpha) | % inh of Smad2/3 phosphorylation in Panc-1 [1]
Cc1c(-c2ccn(C(C)C)n2)cn2nc(-c3nccn3C)nc(Nc3cc(OCCN(C)C)ncn3)c12 [Compound 123, N-(6-(2-(Dimethylamino)ethoxy)pyrimidin-4-yl)-6-(1-isopropyl-1H-pyrazol-3-yl)-5-methyl-2-(1-methyl-1H-imidazol-2-yl)pyrrolo[2,1-f][1,2,4]triazin-4-amine] | D (D = 76-100% inhibition) | D (D = 76-100% inhibition) | 76 to 100% | D (D = 76-100% inhibition) | D (D = 76-100% inhibition) | 25 to 49% | B (B = 26-45% inhibition)
CO[C@H]1C[C@H](Nc2nc(-c3nccn3C)nn3cc(-c4cccnc4)c(C)c23)C1 [Compound 151, N-((1r,3r)-3-Methoxycyclobutyl)-5-methyl-2-(1-methyl-1H-imidazol-2-yl)-6-(pyridin-3-yl)pyrrolo[2,1-f][1,2,4]triazin-4-amine] | C (C = 50-75% inhibition) | C (C = 50-75% inhibition) | 50 to 75% | D (D = 76-100% inhibition) | B (B = 26-49% inhibition) | 0% | A (A = 1-25% inhibition)
COCCO[C@H]1C[C@H](Nc2nc(-c3nccn3C)nn3cc(-c4ccnc(OC)c4)c(C)c23)C1 [Compound 161, N-((1r,3r)-3-(2-Methoxy-ethoxy)cyclo-butyl)-6-(2-methoxy-pyridin-4-yl)-5-methyl-2-(1-methyl-1H-imidazol-2-yl)pyrrolo[2,1-f][1,2,4]triazin-4-amine] | 0 (0 = 0% inhibition) | A (A = 1-25% inhibition) | 1 to 25% | 0 (0 = 0% inhibition) | A (A = 1-25% inhibition) | 50 to 74% | B (B = 26-45% inhibition)
Cc1c(-c2ccn(C)n2)cn2nc(-c3nccn3C)nc(Nc3nccn3C)c12 [Compound 106, 5-Methyl-N,2-bis(1-methyl-1H-imidazol-2-yl)-6-(1-methyl-1H-pyrazol-3-yl)pyrrolo[2,1-f][1,2,4]triazin-4-amine] | 0 (0 = 0% inhibition) | A (A = 1-25% inhibition) | 26 to 49% | A (A = 1-25% inhibition) | B (B = 26-49% inhibition) | 0% | D* (D* = 76-100% activation)
Cc1c(-c2ccn(C)n2)cn2nc(-c3nccn3C)nc(Nc3ncccn3)c12.Cl [Compound 115, 5-Methyl-2-(1-methyl-1H-imidazol-2-yl)-6-(1-methyl-1H-pyrazol-3-yl)-N-(pyrimidin-2-yl)pyrrolo[2,1-f][1,2,4]triazin-4-amine hydrochloride salt] | C (C = 50-75% inhibition) | D (D = 76-100% inhibition) | 1 to 25% | C (C = 50-75% inhibition) | C (C = 50-75% inhibition) | 0% | A (A = 1-25% inhibition)
Cc1c(-c2ccn(C3CC3)n2)cn2nc(-c3nccn3C)nc(Nc3cc(OCCCN(C)C)ccn3)c12 [Compound 148, 6-(1-Cyclopropyl-1H-pyrazol-3-yl)-N-(4-(3-(dimethylamino)propoxy)pyridin-2-yl)-5-methyl-2-(1-methyl-1H-imidazol-2-yl)pyrrolo[2,1-f][1,2,4]triazin-4-amine] | – | – | 0% | – | – | 1 to 24% | A (A = 1-25% inhibition)

Further lines, with some results ahead:

KRas wild type + SOS: % inh. (KRas wild type) | KRas wild type: % inh. (KRas wild type) | inhibition at 20 µM (Rac-1) | KRas G12D mutant + SOS: % inh. (KRas G12D mutant) | KRas G12D mutant: % inh. (KRas G12D mutant) | SMILES | inhibition at 10 µM (TNF-alpha) | % inh of Smad2/3 phosphorylation in Panc-1 [1]
B (B = 26-49% inhibition) | C (C = 50-75% inhibition) | 76 to 100% | D (D = 76-100% inhibition) | D (D = 76-100% inhibition) | CCOc1ccnc(Nc2nc(-c3nccn3C)nn3cc(-c4ccn(C5CC5)n4)c(C)c23)c1 [Compound 141, 6-(1-Cyclopropyl-1H-pyrazol-3-yl)-N-(4-ethoxypyridin-2-yl)-5-methyl-2-(1-methyl-1H-imidazol-2-yl)pyrrolo[2,1-f][1,2,4]triazin-4-amine] | 0% | D (D = 76-100% inhibition)
D (D = 76-100% inhibition) | D (D = 76-100% inhibition) | 76 to 100% | D (D = 76-100% inhibition) | D (D = 76-100% inhibition) | Cc1c(-c2ccn(C3CC3)n2)cn2nc(-c3nccn3C)nc(Nc3cc(OCCCO)ccn3)c12 [Compound 149, 3-((2-((6-(1-Cyclopropyl-1H-pyrazol-3-yl)-5-methyl-2-(1-methyl-1H-imidazol-2-yl)pyrrolo[2,1-f][1,2,4]triazin-4-yl)amino)pyridin-4-yl)oxy)propan-1-ol] | 75 to 100% | A (A = 1-25% inhibition)
D (D = 76-100% inhibition) | D (D = 76-100% inhibition) | 76 to 100% | D (D = 76-100% inhibition) | D (D = 76-100% inhibition) | Cc1c(-c2ccn(C3CC3)n2)cn2nc(-c3nccn3C)nc(Nc3cc(OC4CC4)ccn3)c12 [Compound 142, N-(4-Cyclopropoxypyridin-2-yl)-6-(1-cyclopropyl-1H-pyrazol-3-yl)-5-methyl-2-(1-methyl-1H-imidazol-2-yl)pyrrolo[2,1-f][1,2,4]triazin-4-amine] | 0% | C (C = 46-75% inhibition)
– | – | 0% | – | – | Cc1c(-c2ccn(C3CC3)n2)cn2nc(-c3nccn3C)nc(Nc3cc(OCCN(C)C)ccn3)c12 [Compound 147, 6-(1-Cyclopropyl-1H-pyrazol-3-yl)-N-(4-(2-(dimethylamino)ethoxy)pyridin-2-yl)-5-methyl-2-(1-methyl-1H-imidazol-2-yl)pyrrolo[2,1-f][1,2,4]triazin-4-amine] | 1 to 24% | C (C = 46-75% inhibition)

— US12459951B2, “Compounds that interact with RAS superfamily proteins for treatment of cancers, inflammatory diseases, rasopathies, and fibrotic disease” (SHY Therapeutics, LLC, priority 2022, dated 2025)
